This is an account of results in ChEMBL document CHEMBL5241129, “Design and synthesis of novel orexin 2 receptor agonists with a 1,3,5‑trioxazatriquinane skeleton” (Bioorg Med Chem Lett, 2023).

Activity calls are given as the source filed them. The calls are words filed in the database; no cut-off is given here.

In one experiment the target is T1, Orexin/Hypocretin receptor type 1 (Homo sapiens, UniProt O43613).
T1 sequence (O43613 whole entry): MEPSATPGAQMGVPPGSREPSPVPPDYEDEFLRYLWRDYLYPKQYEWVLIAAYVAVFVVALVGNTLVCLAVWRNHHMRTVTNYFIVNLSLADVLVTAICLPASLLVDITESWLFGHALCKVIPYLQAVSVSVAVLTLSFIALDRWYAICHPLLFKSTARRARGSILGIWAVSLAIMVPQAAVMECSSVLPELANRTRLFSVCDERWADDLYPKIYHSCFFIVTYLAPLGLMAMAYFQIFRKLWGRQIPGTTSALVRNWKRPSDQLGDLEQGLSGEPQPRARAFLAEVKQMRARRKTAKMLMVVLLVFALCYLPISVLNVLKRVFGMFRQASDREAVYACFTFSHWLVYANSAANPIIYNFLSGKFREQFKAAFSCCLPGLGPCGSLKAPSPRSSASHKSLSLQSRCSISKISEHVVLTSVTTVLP
Nature of the experiment: Antagonist activity at OX1R (unknown origin).
Conditions: not given
Turning to `COc1ccc(C(=O)Nc2cccc([C@@]3(C)O[C@@H]4CO[C@H]5N4[C@@H]3O[C@]5(C)c3cccc(NC(=O)c4ccc(OC)cc4)c3)c2)cc1`, the inhibitory constant (Ki) was determined as 2.17 nM. `COc1ccc(C(=O)Nc2cccc([C@]3(C)O[C@H]4CO[C@@H]5N4[C@H]3O[C@@]5(C)c3cccc(NC(=O)c4ccc(OC)cc4)c3)c2)cc1` had a Ki of 5.23 nM.

A further experiment concerns the target T2, Orexin/Hypocretin receptor type 1 (Homo sapiens) (UniProt O43613).
T2 sequence (whole entry): T1 sequence (O43613 whole entry)
Nature of the experiment: Agonist activity at OX1R (unknown origin) expressed in CHO cells at 10 uM by cell based calcium assay relative to orexin A.
Conditions: not given
In the case of `CCCCCCCCS(=O)(=O)NC[C@@]1(C)O[C@@H]2CO[C@H]3N2[C@@H]1O[C@]3(C)CNS(=O)(=O)CCCCCCCC` (racemic), the Emax came to 23.6%. Same read-out and setting: for `CCCCCCCCS(=O)(=O)NC[C@]1(C)O[C@@H]2CO[C@H]3N2[C@@H]1O[C@@]3(C)CNS(=O)(=O)CCCCCCCC` (stereo in doubt; (+)-28d) [listing 1 of 2 here] the value was 5.66%; for `CC(C)(C)OC(=O)NC[C@@]1(C)O[C@H]2N3[C@@H](CO[C@@H]31)O[C@@]2(C)CNC(=O)OC(C)(C)C`, 4.94%; for `CCCCCCCCS(=O)(=O)NC[C@]1(C)O[C@@H]2CO[C@H]3N2[C@@H]1O[C@@]3(C)CNS(=O)(=O)CCCCCCCC` (stereo in doubt; 28a), 11.8%. As for `CCCS(=O)(=O)NC[C@@]1(C)O[C@@H]2CO[C@H]3N2[C@@H]1O[C@]3(C)CNS(=O)(=O)CCC`, the Emax was 14.2%. As to `CC(C)(C)OC(=O)NC[C@@]1(C)O[C@H]2CO[C@@H]3N2[C@H]1O[C@]3(C)CNC(=O)OC(C)(C)C`, the Emax amounted to 4.31%. On the same count and under the same terms, then `CC(C)(C)OC(=O)NC[C@]1(C)O[C@@H]2CO[C@H]3N2[C@@H]1O[C@@]3(C)CNC(=O)OC(C)(C)C` (stereo in doubt; (+)-20d), with 5.07%. On the same count and under the same terms, for `CN(C[C@@]1(C)O[C@@H]2CO[C@H]3N2[C@@H]1O[C@]3(C)CN(C)C(=O)OC(C)(C)C)C(=O)OC(C)(C)C` the value was 4.47%; for `CCCCCCCCS(=O)(=O)NC[C@@]1(C)O[C@H]2CO[C@@H]3N2[C@H]1O[C@]3(C)CNS(=O)(=O)CCCCCCCC`, 5.29%; for `CCCCCCCCS(=O)(=O)N(C)C[C@@]1(C)O[C@@H]2CO[C@H]3N2[C@@H]1O[C@]3(C)CN(C)S(=O)(=O)CCCCCCCC`, 2.65%. Take `CC(C)(C)OC(=O)NC[C@@]1(C)O[C@@H]2CO[C@H]3N2[C@@H]1O[C@@]3(C)CNC(=O)OC(C)(C)C`: the Emax was determined as 2.21%. The same measure, in the same setting: for `CCCCCCCCS(=O)(=O)NC[C@@]1(C)O[C@@H]2CO[C@H]3N2[C@@H]1O[C@@]3(C)CNS(=O)(=O)CCCCCCCC` the value was 3.86%; for `CCCCCCCCS(=O)(=O)NC[C@@]1(C)O[C@H]2N3[C@@H](CO[C@@H]31)O[C@@]2(C)CNS(=O)(=O)CCCCCCCC`, 3.71%. Consider `C[C@]1(CNS(C)(=O)=O)O[C@@H]2CO[C@H]3N2[C@@H]1O[C@]3(C)CNS(C)(=O)=O`, for which the Emax worked out at 5.66%. Take `CCCCS(=O)(=O)NC[C@@]1(C)O[C@@H]2CO[C@H]3N2[C@@H]1O[C@]3(C)CNS(=O)(=O)CCCC`: the Emax was 11.1%.

Turning to `CC(C)(C)OC(=O)NC[C@]1(C)O[C@@H]2CO[C@H]3N2[C@@H]1O[C@@]3(C)CNC(=O)OC(C)(C)C` (stereo in doubt; 20a), the maximal response (Emax) stood at 30.1%.

With `CC(C)(C)NC(=O)NC[C@@]1(C)O[C@@H]2CO[C@H]3N2[C@@H]1O[C@]3(C)CNC(=O)NC(C)(C)C`, the Emax was determined as 2.81%.

Staying with this experiment, now noted: filed as agonist.
On to `CC(C)(C)OC(=O)NC[C@@]1(C)O[C@@H]2CO[C@H]3N2[C@@H]1O[C@]3(C)CNC(=O)OC(C)(C)C` (racemic), for which the Emax was 54%.

The next experiment concerns the target T2, Orexin/Hypocretin receptor type 1 (Homo sapiens). Nature of the experiment: Agonist activity at OX1R (unknown origin) expressed in CHO cells at 10 uM by cell based calcium assay.
Conditions: not given
Turning to `C[C@]1(CNS(=O)(=O)c2ccccc2)O[C@H]2CO[C@@H]3N2[C@H]1O[C@]3(C)CNS(=O)(=O)c1ccccc1`, the outcome was inactive.

For another experiment the target is unchanged. Description: Antagonist activity at OX1R (unknown origin) expressed in CHO cells at 10 uM in presence of orexin A by cell based calcium assay.
Conditions: not given
Take `CCCCCCCCS(=O)(=O)NC[C@@]1(C)O[C@@H]2CO[C@H]3N2[C@@H]1O[C@]3(C)CNS(=O)(=O)CCCCCCCC` (racemic): the outcome was inactive. Turning to `CC(C)(C)OC(=O)NC[C@@]1(C)O[C@@H]2CO[C@H]3N2[C@@H]1O[C@]3(C)CNC(=O)OC(C)(C)C` (racemic), the result was inactive. `CCCCCCCCS(=O)(=O)NC[C@]1(C)O[C@@H]2CO[C@H]3N2[C@@H]1O[C@@]3(C)CNS(=O)(=O)CCCCCCCC` (stereo in doubt; 28a): the outcome was inactive. As to `CCCS(=O)(=O)NC[C@@]1(C)O[C@@H]2CO[C@H]3N2[C@@H]1O[C@]3(C)CNS(=O)(=O)CCC`, the result was inactive. For `C[C@]1(CNS(C)(=O)=O)O[C@@H]2CO[C@H]3N2[C@@H]1O[C@]3(C)CNS(C)(=O)=O`, the outcome was inactive. With `CCCCS(=O)(=O)NC[C@@]1(C)O[C@@H]2CO[C@H]3N2[C@@H]1O[C@]3(C)CNS(=O)(=O)CCCC`, the outcome was inactive.

In a further experiment the target is T3, Orexin receptor type 2 (Homo sapiens) (UniProt O43614).
T3 sequence (whole entry): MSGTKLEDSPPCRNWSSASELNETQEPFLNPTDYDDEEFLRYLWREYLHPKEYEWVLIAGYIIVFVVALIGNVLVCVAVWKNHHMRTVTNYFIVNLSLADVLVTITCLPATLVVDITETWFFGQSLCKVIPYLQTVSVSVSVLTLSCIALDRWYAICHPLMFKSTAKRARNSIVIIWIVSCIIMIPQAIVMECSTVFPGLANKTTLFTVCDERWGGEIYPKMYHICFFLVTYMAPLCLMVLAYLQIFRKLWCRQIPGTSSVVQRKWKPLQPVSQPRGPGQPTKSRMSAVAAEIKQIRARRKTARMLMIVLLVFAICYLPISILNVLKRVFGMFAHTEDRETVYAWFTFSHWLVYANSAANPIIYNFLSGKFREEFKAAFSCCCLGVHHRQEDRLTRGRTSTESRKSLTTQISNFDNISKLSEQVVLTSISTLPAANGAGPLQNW
Description: Agonist activity at OX2R (unknown origin) expressed in CHO cells at 10 uM by cell based calcium assay.
Conditions: not given
Take `COc1cccc(C(=O)NC[C@]2(C)O[C@H]3CO[C@@H]4N3[C@H]2O[C@@]4(C)CNC(=O)c2cccc(OC)c2)c1`: the outcome was inactive.

In the case of `COc1cccc(C(=O)NC[C@@]2(C)O[C@H]3CO[C@@H]4N3[C@H]2O[C@]4(C)CNC(=O)c2cccc(OC)c2)c1`, the outcome was inactive. Regarding `COc1ccccc1C(=O)NC[C@]1(C)O[C@H]2CO[C@@H]3N2[C@H]1O[C@@]3(C)CNC(=O)c1ccccc1OC`, the outcome was inactive. Turning to `C[C@@]1(CNC(=O)OCc2ccccc2)O[C@H]2CO[C@@H]3N2[C@H]1O[C@@]3(C)CNC(=O)OCc1ccccc1`, the result was inactive. Regarding `C[C@@]1(CNC(=O)Cc2ccccc2)O[C@H]2CO[C@@H]3N2[C@H]1O[C@@]3(C)CNC(=O)Cc1ccccc1`, the result was inactive. The same measure, in the same setting: then `C[C@]1(CNS(=O)(=O)c2ccccc2)O[C@H]2CO[C@@H]3N2[C@H]1O[C@]3(C)CNS(=O)(=O)c1ccccc1`, with “inactive”.

Take `CC(=O)NC[C@@]1(C)O[C@H]2CO[C@@H]3N2[C@H]1O[C@]3(C)CNC(C)=O`: the outcome was inactive.

In the case of `COc1ccc(C(=O)NC[C@]2(C)O[C@H]3CO[C@@H]4N3[C@H]2O[C@@]4(C)CNC(=O)c2ccc(OC)cc2)cc1`, the outcome was inactive. For `C[C@@]1(CNC(=O)OCC(Cl)(Cl)Cl)O[C@H]2CO[C@@H]3N2[C@H]1O[C@@]3(C)CNC(=O)OCC(Cl)(Cl)Cl`, the result was inactive.

In the case of `C[C@]1(CNC(=O)OCc2ccccc2)O[C@H]2CO[C@@H]3N2[C@H]1O[C@]3(C)CNC(=O)OCc1ccccc1`, the outcome was inactive. In the case of `C=CCOC(=O)NC[C@]1(C)O[C@H]2CO[C@@H]3N2[C@H]1O[C@@]3(C)CNC(=O)OCC=C`, the outcome was inactive. With `COC(=O)NC[C@@]1(C)O[C@H]2CO[C@@H]3N2[C@H]1O[C@]3(C)CNC(=O)OC`, the outcome was inactive. For the molecule `C[C@]1(CNC(=O)OCC(Cl)(Cl)Cl)O[C@H]2CO[C@@H]3N2[C@H]1O[C@]3(C)CNC(=O)OCC(Cl)(Cl)Cl`, the result was inactive. As for `CC(C)(C)C(=O)NC[C@]1(C)O[C@H]2CO[C@@H]3N2[C@H]1O[C@@]3(C)CNC(=O)C(C)(C)C`, the outcome was inactive. Consider `C[C@@]1(CNC(=O)/C=C/c2ccccc2)O[C@H]2CO[C@@H]3N2[C@H]1O[C@@]3(C)CNC(=O)/C=C/c1ccccc1`, for which the outcome was inactive. Take `C[C@]1(CNC(=O)c2ccccc2)O[C@H]2CO[C@@H]3N2[C@H]1O[C@]3(C)CNC(=O)c1ccccc1`: the result was inactive. As to `C[C@]1(CNC(=O)Cc2ccccc2)O[C@H]2CO[C@@H]3N2[C@H]1O[C@]3(C)CNC(=O)Cc1ccccc1`, the result was inactive. Same read-out and setting: for `C[C@@]1(CNC(=O)CCc2ccccc2)O[C@H]2CO[C@@H]3N2[C@H]1O[C@@]3(C)CNC(=O)CCc1ccccc1` the value was “inactive”; for `COc1ccccc1C(=O)NC[C@@]1(C)O[C@H]2CO[C@@H]3N2[C@H]1O[C@]3(C)CNC(=O)c1ccccc1OC`, “inactive”. In the case of `C[C@]1(CNC(=O)/C=C/c2ccccc2)O[C@H]2CO[C@@H]3N2[C@H]1O[C@]3(C)CNC(=O)/C=C/c1ccccc1`, the result was inactive. Consider `C[C@]1(CNC(=O)CCc2ccccc2)O[C@H]2CO[C@@H]3N2[C@H]1O[C@]3(C)CNC(=O)CCc1ccccc1`, for which the outcome was inactive. The same measure, in the same setting: then `CC(C)(C)C(=O)NC[C@@]1(C)O[C@H]2CO[C@@H]3N2[C@H]1O[C@]3(C)CNC(=O)C(C)(C)C`, with “inactive”; and `CC(=O)NC[C@]1(C)O[C@H]2CO[C@@H]3N2[C@H]1O[C@@]3(C)CNC(C)=O`, with “inactive”; and `COc1ccc(C(=O)NC[C@@]2(C)O[C@H]3CO[C@@H]4N3[C@H]2O[C@]4(C)CNC(=O)c2ccc(OC)cc2)cc1`, with “inactive”. `COC(=O)NC[C@]1(C)O[C@H]2CO[C@@H]3N2[C@H]1O[C@@]3(C)CNC(=O)OC`: the outcome was inactive. `C=CCOC(=O)NC[C@@]1(C)O[C@H]2CO[C@@H]3N2[C@H]1O[C@]3(C)CNC(=O)OCC=C`: the result was inactive. Turning to `C[C@@]1(CNC(=O)c2ccccc2)O[C@H]2CO[C@@H]3N2[C@H]1O[C@@]3(C)CNC(=O)c1ccccc1`, the result was inactive.

In another experiment the target is T4, Orexin receptor type 2 (Homo sapiens, UniProt O43614).
T4 sequence (O43614 whole entry): T3 sequence (whole entry)
Description: Agonist activity at OX2R (unknown origin) expressed in CHO cells by cell based calcium assay.
Conditions: not given
In the case of `CCCCCCCCS(=O)(=O)NC[C@]1(C)O[C@@H]2CO[C@H]3N2[C@@H]1O[C@@]3(C)CNS(=O)(=O)CCCCCCCC` (stereo in doubt; (+)-28d) [listing 2 of 2 here], the EC50 was found to be 1620 nM. Regarding `CCCCCCCCS(=O)(=O)NC[C@@]1(C)O[C@H]2CO[C@@H]3N2[C@H]1O[C@]3(C)CNS(=O)(=O)CCCCCCCC`, the EC50 came to 2420 nM.
